In brackets after ≈: the same amount, converted by molar mass.
Columns and labels:
Format in all cases: cell-based
[1] = system: Neutrophils purified from human peripheral blood; experiment: Human Neutrophil Transwell Migration Assay; conditions: 37° C., 45 minutes, % of the maximum migration possible
Source text: Neutrophils were purified from human peripheral blood utilizing PolymorphPrep. Red blood cells were lysed with a lysis buffer and the cells were washed, counted and resuspended in assay buffer. Neutrophils (approximately 50,000 to 100,000 in number) were placed over 5-micon pore sized transwell plates in 24-well format with test compounds in the bottom chamber of each well. A negative control of media alone in the bottom chamber was set up in triplicate. A positive control where the neutrophils were added directly to the bottom well was set up in triplicate.
The plates were incubated at 37° C. for 45 minutes to allow for migration. After this time, migration was confirmed visually and then an aliquot (⅙^th of total cells) from each well was taken for ATP detection via luminescence with ATPlite (PerkinElmer) to quantify the number of migrated cells. The averaged reading for random migration detected in the negative control was subtracted from all readings to obtain the corrected migration number. These numbers were then divided by the averaged reading from the positive control to get the % Neutrophil Migration of the maximum migration possible.

[2] = system: C. parapsilosis ATCC 22019; experiment: microbe, parasite or virus in culture; conditions: ATCC 22019, pH 7
Protocol: (§1) The test organisms consisted of strains from the Micromyx collection. Reference isolates were originally received from the American Type Culture Collection (ATCC; Manassas, Va.). Organisms received at Micromyx were initially streaked for isolation on Sabouraud dextrose or potato dextrose agar. Colonies were picked by swab from the medium and resuspended in the appropriate broth containing cryoprotectant. The suspensions were aliquoted into cryogenic vials and maintained at −80° C. Prior to testing, Candida isolates were streaked from the frozen vials on Sabouraud dextrose agar. The yeast isolates were incubated at overnight at 35° C. before use. The fungal isolates were incubated at least 7 days on Sabouraud dextrose agar slants at 35° C. before harvesting.
(§2) Isolates were tested in RPMI medium (Catalog No. SH30011.04; Lot No. AWA92121B; HyClone Labs, Logan, Utah) which was prepared according to CLSI guidelines. The pH of the medium was adjusted to 7.0 with 1 N NaOH. The medium was sterile filtered using a 0.2 μm PES filter and stored at 4° C. until used.
(§3) The MIC assay method employed automated liquid handlers to conduct serial dilutions and liquid transfers. Automated liquid handlers included the Multidrop 384 (Labsystems, Helsinki, Finland), Biomek 2000 and Biomek FX (Beckman Coulter, Fullerton Calif.). The wells in columns 2-12 in standard 96-well microdilution plates (Costar 3795) were filled with 150 μl of the correct diluent (50% DMSO for investigational compounds, 100% DMSO for comparator compounds). These would become the mother plates' from which ‘daughter’ or test plates would be prepared. Stocks were diluted to 40× the desired top concentration in the test plates in the indicated solvent, and 300 μL of the 40× stock was dispensed into the appropriate well in Column 1 of the mother plates. The Biomek 2000 was used to make serial serial 2-fold dilutions through Column 11 in the “mother plate”. The wells of Column 12 contained no drug and served as the organism growth control wells.
(§4) The daughter plates were loaded with 185 μL per well of RPMI described above using the Multidrop 384. The daughter plates were prepared using the Biomek FX which transferred 5 μL of drug solution from each well of a mother plate to the corresponding well of the daughter plate in a single step.
(§5) A standardized inoculum of each organism was prepared. For Candida, colonies were picked from the streak plate and a suspension was prepared in RPMI medium equal to a 0.5 McFarland standard, then diluted 1:100 in RPMI and transferred to compartments of sterile reservoirs divided by length (Beckman Coulter). For the Aspergillus isolates, previously prepared and quantitated suspensions were used to make dilutions in RPMI to reach 20× the final concentration. These dilutions were also transferred to compartments of sterile reservoirs divided by length (Beckman Coulter). The final concentration of the Aspergillus isolates was approximately 0.2-2.5×10^4 CFU/mL.
(§6) The Biomek 2000 was used to inoculate the plates. Daughter plates were placed on the Biomek 2000 work surface reversed so that inoculation took place from low to high drug concentration. The Biomek 2000 delivered 10 μL of standardized inoculum into each well. Thus, the wells of the daughter plates ultimately contained 185 μL of RPMI, 5 μL of drug solution, and 10 μL of inoculum. The final concentration of DMSO in the test well was 2.5% for the evaluated comparators and 1.25% for the investigational agents.
(§7) Plates were stacked 3 high, covered with a lid on the top plate, placed into plastic bags, and incubated at 35° C. for approximately 24-48 hr prior to reading. Plates were read when inoculum was confluent in growth wells. Plates were viewed from the bottom using a plate viewer. […] MICs were read where visible growth of the organism was inhibited. MECs were read where the growth shifted to a small, rounded, compact hyphal form as compared to the hyphal growth seen in the growth control well.

C. albicans ATCC 90028 = experiment: microbe, parasite or virus in culture; conditions: ATCC 90028, pH 7
Protocol: as §1, §2, §3, §4, §5, §6, §7

C. krusei ATCC 14243 = experiment: microbe, parasite or virus in culture; conditions: ATCC 14243, pH 7
Protocol: as §1, §2, §3, §4, §5, §6, §7

C. glabrata ATCC 90030 = experiment: microbe, parasite or virus in culture; conditions: ATCC 90030, pH 7
Protocol: as §1, §2, §3, §4, §5, §6, §7

A. fumigatus ATCC 13073 = experiment: MEC assay (Example 31); conditions: RPMI pH 7.0, 35° C., 24-48 hr
Protocol: as §1, §2, §3, §4, §5, §6, §7

A. fumigatus MYA-3626 = experiment: MEC assay (Example 31); conditions: RPMI pH 7.0, 35° C., 24-48 hr
Protocol: as §1, §2, §3, §4, §5, §6, §7

A. fumigatus MX 5944 = experiment: MEC assay (Example 31); conditions: RPMI pH 7.0, 35° C., 24-48 hr
Protocol: as §1, §2, §3, §4, §5, §6, §7

A. flavus MX 5948 = experiment: MEC assay (Example 31); conditions: RPMI pH 7.0, 35° C., 24-48 hr
Protocol: as §1, §2, §3, §4, §5, §6, §7

A. fumigatus MYA-4609 = experiment: MEC assay (Example 31); conditions: RPMI pH 7.0, 35° C., 24-48 hr
Protocol: as §1, §2, §3, §4, §5, §6, §7

SMILES	MIC [2]	MIC (C. albicans ATCC 90028)	MIC (C. krusei ATCC 14243)	MIC (C. glabrata ATCC 90030)	% Neutrophil Migration ([1]; conc 0.001 μg/mL)	% Neutrophil Migration ([1]; conc 0.01 μg/mL)	% Neutrophil Migration ([1]; conc 0.1 μg/mL)	% Neutrophil Migration ([1]; conc 1 μg/mL)	% Neutrophil Migration ([1]; conc 10 μg/mL)	MEC (A. fumigatus ATCC 13073)	MEC (A. fumigatus MYA-3626)	MEC (A. fumigatus MX 5944)	MEC (A. flavus MX 5948)	MEC (A. fumigatus MYA-4609)
CC[C@H](C)C[C@H](C)CCCCCCCCC(=O)N[C@H]1C[C@@H](O)[C@@H](NCCN)NC(=O)[C@@H]2[C@@H](O)CCN2C(=O)[C@H]([C@H](O)CCNC(=O)[C@@H](N)CCCCNC(=O)[C@H](Cc2ccccc2)NC(=O)[C@H](CC(C)C)NC(=O)[C@H](CCSC)NC=O)NC(=O)[C@H]([C@H](O)[C@@H](O)c2ccc(O)cc2)NC(=O)[C@@H]2C[C@@H](O)CN2C(=O)[C@H]([C@@H](C)O)NC1=O [Compound 15]	16 µg/mL (≈ 9.75 µM)	1 µg/mL (≈ 0.609 µM)	8 µg/mL (≈ 4.87 µM)	2 µg/mL (≈ 1.22 µM)	9.6%	47.3%	13.0%	−6.3%	−7.0%	0.12 µg/mL	0.12 µg/mL	0.12 µg/mL	0.12 µg/mL	0.12 µg/mL
CC[C@H](C)C[C@H](C)CCCCCCCCC(=O)N[C@H]1C[C@@H](O)[C@@H](NCCNC(=O)CCNC(=O)[C@H](Cc2ccccc2)NC(=O)[C@H](CC(C)C)NC(=O)[C@H](CCSC)NC=O)NC(=O)[C@@H]2[C@@H](O)CCN2C(=O)[C@H]([C@H](O)CCN)NC(=O)[C@H]([C@H](O)[C@@H](O)c2ccc(O)cc2)NC(=O)[C@@H]2C[C@@H](O)CN2C(=O)[C@H]([C@@H](C)O)NC1=O [Compound 4]	32 µg/mL (≈ 20.2 µM)	2 µg/mL (≈ 1.26 µM)	8 µg/mL (≈ 5.05 µM)	4 µg/mL (≈ 2.53 µM)	3.8%	88.0%	15.1%	−9.8%	−11.2%	1 µg/mL	2 µg/mL	1 µg/mL	1 µg/mL	1 µg/mL
CC[C@H](C)C[C@H](C)CCCCCCCCC(=O)N[C@H]1C[C@@H](O)[C@@H](NCCN)NC(=O)[C@@H]2[C@@H](O)CCN2C(=O)[C@H]([C@H](O)CCNC(=O)CCNC(=O)[C@H](Cc2ccccc2)NC(=O)[C@H](CC(C)C)NC(=O)[C@H](CCSC)NC=O)NC(=O)[C@H]([C@H](O)[C@@H](O)c2ccc(O)cc2)NC(=O)[C@@H]2C[C@@H](O)CN2C(=O)[C@H]([C@@H](C)O)NC1=O [Compound 3]	>32 µg/mL	2 µg/mL (≈ 1.26 µM)	16 µg/mL (≈ 10.1 µM)	16 µg/mL (≈ 10.1 µM)	1.5%	109.3%	66.2%	−9.7%	−11.0%	1 µg/mL	1 µg/mL	1 µg/mL	1 µg/mL	1 µg/mL
CC[C@H](C)C[C@H](C)CCCCCCCCC(=O)N[C@H]1C[C@@H](O)[C@@H](NCCN)NC(=O)[C@@H]2[C@@H](O)CCN2C(=O)[C@H]([C@H](O)CCNC(=O)CCNC(=O)[C@H](Cc2ccccc2)NC(=O)[C@H](CC(C)C)NC(=O)[C@H](CCSC)NC(C)=O)NC(=O)[C@H]([C@H](O)[C@@H](O)c2ccc(O)cc2)NC(=O)[C@@H]2C[C@@H](O)CN2C(=O)[C@H]([C@@H](C)O)NC1=O [Compound 7]	32 µg/mL (≈ 20 µM)	2 µg/mL (≈ 1.25 µM)	16 µg/mL (≈ 10 µM)	8 µg/mL (≈ 5.01 µM)						1 µg/mL	0.5 µg/mL	1 µg/mL	1 µg/mL	0.5 µg/mL

Further lines, with some results ahead:

MIC [2]	MIC (C. albicans ATCC 90028)	MIC (C. krusei ATCC 14243)	MIC (C. glabrata ATCC 90030)	SMILES	% Neutrophil Migration ([1]; conc 0.001 μg/mL)	% Neutrophil Migration ([1]; conc 0.01 μg/mL)	% Neutrophil Migration ([1]; conc 0.1 μg/mL)	% Neutrophil Migration ([1]; conc 1 μg/mL)	% Neutrophil Migration ([1]; conc 10 μg/mL)	MEC (A. fumigatus ATCC 13073)	MEC (A. fumigatus MYA-3626)	MEC (A. fumigatus MX 5944)	MEC (A. flavus MX 5948)	MEC (A. fumigatus MYA-4609)
>32 µg/mL	2 µg/mL (≈ 1.38 µM)	32 µg/mL (≈ 22 µM)	8 µg/mL (≈ 5.51 µM)	CC[C@H](C)C[C@H](C)CCCCCCCCC(=O)N[C@H]1C[C@@H](O)[C@@H](NCCN)NC(=O)[C@@H]2[C@@H](O)CCN2C(=O)[C@H]([C@H](O)CCNC(=O)[C@H](CO)NC(=O)[C@H](CC(C)C)NC(=O)[C@H](CCSC)NC=O)NC(=O)[C@H]([C@H](O)[C@@H](O)c2ccc(O)cc2)NC(=O)[C@@H]2C[C@@H](O)CN2C(=O)[C@H]([C@@H](C)O)NC1=O [Compound 29]	1.4%	0.1%	2.2%	11.0%	8.4%	0.5 µg/mL	0.25 µg/mL	0.25 µg/mL	0.25 µg/mL	0.25 µg/mL
16 µg/mL (≈ 10.6 µM)	2 µg/mL (≈ 1.32 µM)	8 to 16 µg/mL	4 µg/mL (≈ 2.64 µM)	CC[C@H](C)C[C@H](C)CCCCCCCCC(=O)N[C@H]1C[C@@H](O)[C@@H](NCCNC(=O)[C@H](Cc2ccccc2)NC(=O)[C@H](CC(C)C)NC(=O)[C@H](CCSC)NC=O)NC(=O)[C@@H]2[C@@H](O)CCN2C(=O)[C@H]([C@H](O)CCN)NC(=O)[C@H]([C@H](O)[C@@H](O)c2ccc(O)cc2)NC(=O)[C@@H]2C[C@@H](O)CN2C(=O)[C@H]([C@@H](C)O)NC1=O [Compound 2]	−5.3%	28.5%	97.5%	30.6%	−11.0%	0.12 to 2 µg/mL	0.25-1^ μg/mL	0.12 to 1 µg/mL	0.06 to 1 µg/mL	0.12 to 1 µg/mL
8 µg/mL (≈ 5.34 µM)	1 µg/mL (≈ 0.668 µM)	8 µg/mL (≈ 5.34 µM)	2 µg/mL (≈ 1.34 µM)	CC[C@H](C)C[C@H](C)CCCCCCCCC(=O)N[C@H]1C[C@@H](O)[C@@H](NCCN)NC(=O)[C@@H]2[C@@H](O)CCN2C(=O)[C@H]([C@H](O)CCNC(=O)[C@H](CCSC)NC(=O)[C@H](CC(C)C)NC(=O)[C@H](CCSC)NC=O)NC(=O)[C@H]([C@H](O)[C@@H](O)c2ccc(O)cc2)NC(=O)[C@@H]2C[C@@H](O)CN2C(=O)[C@H]([C@@H](C)O)NC1=O [Compound 28]	−0.4%	2.2%	43.4%	−0.2%	−7.4%	0.25 µg/mL	0.25 µg/mL	0.25 µg/mL	0.12 µg/mL	0.25 µg/mL

Source: patent US20160213742A1, “COMPOSITIONS AND METHODS FOR THE TREATMENT OF FUNGAL INFECTIONS” (priority 2013, published 2016)
